# Test results reported in US20090131406A1 (BAYER CROPSCIENCE AG, priority 2005, published 2009).
# Like-named read-outs stand apart in the source and are kept apart here.
# Key:
# [1] = logP determination by HPLC on a reversed-phase column (C 18) at pH 2.7; format: physicochemical; details: for chromatographic logP: reversed-phase C18 HPLC column
# A375 cells = assay: LIVE/DEAD cytotoxicity assay, inhibition of cell proliferation; format: cell-based, human; details: 48 hours of incubation, calcein-AM fluorescence, cell growth reduced by 50% compared to control
# Experimental: (§1) The compounds of the general formula (I) according to the invention were tested for a possible cytotoxic or proliferation-inhibiting activity on the human tumour cell lines HeLa, SW620 and A375 (all from ATTC, American Type Culture Collection). To this end, the cells were plated in microtitre plates from Greiner (Manufacturer No. 781092) at a cell density of 1000 cells/microtitre plate well and cultivated in cell culture medium at 37° C. under a 5% carbon dioxide atmosphere. Cell culture media and additives were purchased from Invitrogen and the foetal calf serum from Biochrom. The cell culture media for Hela and A375 cells were used as stated by ATCC (HeLa: MEM, Order No. 10370-047, with 1% sodium bicarbonate, 1% non-essential amino acids, 1% sodium pyruvate, 10% foetal calf serum, 0.1% gentamycin; A375: DMEM, Order No. 41965-039, 2% sodium bicarbonate, 1% L-Glutamax, 10% foetal calf serum, 0.1% gentamycin). The culture medium for the SW620 cells consisted of DMEM, Order No. 41965-039, 1% non-essential amino acids, 10% foetal calf serum, 0.1% gentamycin.
# (§2) 24 hours after the cells had been plated in the microtitre plates, various concentrations of at most 100 μM down to a minimum concentration of 5 nM of the test compounds were added to the cells. Stock solutions of the test compounds (10 mM) were prepared in DMSO and stored at −20° C.; for the cytotoxicity tests, the test compounds were diluted in the appropriate cell culture medium.
# (§3) After a further 48 hours of incubation, the cells were washed with medium and analysed with the aid of a two-colour fluorescence cytotoxicity/viability test (LIVE/DEAD viability/cytotoxicity ASSAY kit from Molecular Probes, Order No. L-3224), according to the instructions of the manufacturer. To this end, the medium was aspirated and in each case 30 μl of LIVE/DEAD reagent per microtitre plate well were added to the cells, which were then incubated for 30 minutes. The cells were then washed with PBS (phosphate-buffered saline). The number of live cells was analysed by measuring the green fluorescence of the live dye calcein-AM as a component of the LIVE/DEAD reagent using a fluorescence plate reader (Flexstation, from Molecular Devices) at an excitation wavelength of 485 nm and an emission wavelength of 525 nm (cf. Oral, H. B. Endothelium 6, (1998), 143-151).
# (§4) Cells only with cell culture medium, without added test compounds, were treated in parallel and analysed as growth controls. The reference compounds used for anti-tumour agents having a cytotoxic or proliferation-inhibiting action were colchicine (from Merck/Calbiochem, Order No. 234115) and Taxol (baccatin III N-benzyl-b-phenylisoserine ester, from Merck/Calbiochem, Order No. 580555) (cf. Schiff, P. B. and Horwitz, S. B., Proceedings of the National Academy of Sciences of the U.S.A. 77, 1561-1565, 1980; Holmes, F. A. et al., Journal of the National Cancer Institute 83, 1797-1805, 1991).
# (§5) The cytotoxic effects of the test compounds were expressed as logarithmic GI50 values (growth-inhibiting logarithmic concentration value at which a cell growth reduced by 50% compared to the control without test compounds was measured (cf. Xia et al., Journal of Medicinal Chemistry 44, 3932-3936, 2001; Smith, J. A. et al., Gynecologic Oncology 98, 141-145, 2005)).
# SW620 cells = assay: as above; format: cell-based, human; details: 48 hours of incubation, calcein-AM fluorescence, cell growth reduced by 50% compared to control
# Experimental: as §1, §2, §3, §4, §5
# HeLa cells = assay: as above; format: cell-based, human; set-up: log GI50 values (M), HeLa cells: unit not given here; details: 48 hours of incubation, calcein-AM fluorescence, cell growth reduced by 50% compared to control
# Experimental: as §1
# 24 hours after the cells had been plated in the microtitre plates, various concentrations of at most 100 μM down to a minimum concentration of 5 nM of the test compounds were added to the cells. […]
# as §3, with “To this end, the medium was aspirated and in each case 30 μl of LIVE/DEAD reagent per microtitre plate well were added to the cells, which were then incubated for 30 minutes. The cells were then washed with PBS (phosphate-buffered saline).” left out
# Cells only with cell culture medium, without added test compounds, were treated in parallel and analysed as growth controls. […]
# [2] = reversed-phase C 18, pH 2.7, preparation examples
# [3] = reversed-phase C 18, pH 2.7, preparation examples, read-out: logP (pH 2.7)
# [4] = reversed-phase C 18, pH 2.7, Table 3, starting materials of formula (VII), read-out: logP (pH 2.7)
# [5] = reversed-phase C 18, pH 2.7, Table 2, starting materials of formula (VI), read-out: Physical data: logP values
smiles,measurement,setting,value
"Cc1ccc2c(c1)C1(O)CCN(C2)C(=O)[C@H]2OC(C)(C)O[C@@H]2CC1=O (stereo partly drawn) [Example I-1, (3aS,13aR)-11-Hydroxy-2,2,9-trimethyl-6,11,13,13a-tetrahydro-4H-5,11-ethano[1,3]dioxolo[4,5-d][2]benzazecin-4,12(3aH)-one]",logP (pH 2.7),[1]; [2],1.61
"CC1(C)O[C@@H]2C(=O)N3CCC(=CC[C@H]2O1)c1cnccc1C3 [Example Ia-3, (3aS,13aR)-2,2-Dimethyl-3a,6,13,13a-tetrahydro-4H-5,11-ethano[1,3]dioxolo[4,5-c]pyrido[3,4-h]azecin-4-one]",chromatographic logP,[1]; [3],0.49
"Cc1ccc2c(c1)C1CCN(C2)C(=O)[C@@H](O)[C@H](O)CC1=O (stereo partly drawn) [Example I-9, (4S,5R)-4,5-Dihydroxy-10-methyl-5,6,8-trihydro-1H-2,8-ethano-2-benzazecine-3,7(4H)-dione]",chromatographic logP,[1]; [3],1.33
"CC1(C)O[C@@H]2C(=O)N3CCC(=CC[C@H]2O1)c1ccc(F)cc1C3 [Example Ia-2, (3aS,13aR)-8-Fluoro-2,2-dimethyl-3a,6,13,13a-tetrahydro-4H-5,11-ethano[1,3]dioxolo[4,5-d][2]benzazecin-4-one]",chromatographic logP,[1]; [3],2.39
"COc1cc2c(cc1OC)C1=CCCCC(=O)N(CC1)C2 [Example Ia-4, 10,11-Dimethoxy-1,4,5,6-tetrahydro-3H-2,8-ethano-2-benzazecin-3-one]",chromatographic logP,[1]; [3],1.82
CC(=O)O[C@H]1C(=O)[C@@]2(C)[C@H]([C@H](OC(=O)c3ccccc3)[C@]3(O)C[C@H](OC(=O)[C@H](O)[C@@H](NC(=O)c4ccccc4)c4ccccc4)C(C)=C1C3(C)C)[C@]1(OC(C)=O)CO[C@@H]1C[C@@H]2O [Taxol],GI50,"A375 cells; Homo sapiens, A-375, read-out: log GI50 values (M), A375 cells (converted)",1.26e-07 M
same,GI50,"SW620 cells; Homo sapiens, SW-620, read-out: log GI50 values (M), SW620 cells (converted)",1e-07 M
same,GI50,"HeLa cells; Homo sapiens, read-out: log GI50 values (M), HeLa cells (converted)",1e-07 M
"CC1(C)O[C@@H]2C(=O)N3CCC(C(=O)C[C@H]2O1)c1cc2c(cc1C3)OCO2 (stereo partly drawn) [Example I-8, (3aS,14aR)-2,2-Dimethyl-6,12,14,14a-tetrahydro-4H-5,12-ethanobis[1,3]dioxolo[4,5-d:4′,5′-k][2]benzazecine-4,13(3aH)-dione]",chromatographic logP,[1]; [3],1.6
"CC1(C)O[C@@H]2C(=O)N3CCC(C(=O)C[C@H]2O1)c1ccc(F)cc1C3 (stereo partly drawn) [Example I-6, (3aS,13aR)-8-Fluoro-2,2-dimethyl-6,11,13,13a-tetrahydro-4H-5,11-ethano[1,3]dioxolo[4,5-d][2]benzazecine-4,12(3aH)-dione]",chromatographic logP,[1]; [3],1.69
"CO[C@@H]1[C@@H](OC)[C@H](O[C@@H]2CC(=O)[C@@H]3CCN(Cc4cc5c(cc43)OCO5)C(=O)[C@H]2O)O[C@H](CO)[C@H]1OC [Cripowellin II, cripowellin II]","log GI50 values (M), A375 cells",A375 cells,8.0 M
same,"log GI50 values (M), SW620 cells",SW620 cells,6.9 -log M
same,"log GI50 values (M), HeLa cells",HeLa cells,8.7
"O=C1CCCC=CCCN1Cc1cc2c(cc1Br)OCO2 [VII-5, 1-[(6-Bromo-1,3-Benzodioxol-5-yl)Methyl]-1,3,4,5,8,9-Hexahydro-2H-azonin-2-one]",chromatographic logP,[1]; [4],2.94
"O=C1CCCC(=O)C2(O)CCN1Cc1cc3c(cc12)OCO3 (centres unmarked) [Example I-3, 12-Hydroxy-9,10,12-trihydro-5H-6,12-ethano[1,3]dioxolo[4,5-k][2]benzazecine-7,11(8H)-dione]",chromatographic logP,[1]; [3],0.99
"COc1cc(Br)c(CN2CCC=CCCCC2=O)cc1OC [VII-4, 1-(2-bromo-4,5-dimethoxybenzyl)-1,3,4,5,8,9-hexahydro-2H-azonin-2-one]",chromatographic logP,[1]; [4],2.78
"CC1(C)O[C@@H]2C(=O)N3CCC(O)(C(=O)C[C@H]2O1)c1cc2c(cc1C3)OCO2 (stereo partly drawn) [Example I-4, (3aS,14aR)-12-hydroxy-2,2-dimethyl-6,12,14,14a-tetrahydro-4H-5,12-ethanobis[1,3]dioxolo[4,5-d:4′,5′-k][2]benzazecine-4,13(3aH)-dione]",chromatographic logP,[1]; [3],1.38
"CC1(C)O[C@@H]2C(=O)N3CCC(=CC[C@H]2O1)c1cc2c(cc1C3)OCO2 [Example Ia-6, (3aS,14aR)-2,2-Dimethyl-3a,6,14,14a-tetrahydro-4H-5,12-ethanobis[1,3]dioxolo[4,5-d:4′,5′-k][2]benzazecin-4-one]",chromatographic logP,[1]; [3],2.19
"Cc1ccc2c(c1)C1=CC[C@H]3OC(C)(C)O[C@@H]3C(=O)N(CC1)C2 [Example Ia-1, (3aS,13aR)-2,2,9-Trimethyl-3a,6,13,13a-tetrahydro-4H-5,11-ethano[1,3]dioxolo[4,5-d][2]benzazecin-4-one]",chromatographic logP,[1]; [3],2.62
"CC1(C)O[C@@H]2C(=O)N3CCC(O)(C(=O)C[C@H]2O1)c1ccc(F)cc1C3 (stereo partly drawn) [Example I-2, (3aS,13aR)-8-Fluoro-11-hydroxy-2,2-dimethyl-6,11,13,13a-tetrahydro-4H-5,11-ethano[1,3]dioxolo[4,5-d][2]benzazecine-4,12(3aH)-dione]",chromatographic logP,[1]; [3],1.49
"Cc1ccc2c(c1)C1CCN(C2)C(=O)[C@H]2OC(C)(C)O[C@@H]2CC1=O (stereo partly drawn) [Example I-5, (3aS,13aR)-2,2,9-Trimethyl-6,11,13,13a-tetrahydro-4H-5,11-ethanol[1,3]dioxolo[4,5-d][2]benzazecine-4,12(3aH)-dione]",logP (pH 2.7),[1]; [2],1.92
"C=CCCN(Cc1cc(F)ccc1Br)C(=O)[C@H]1OC(C)(C)O[C@@H]1CC=C [VI-2, (4S,5R)-5-allyl-N-(2-bromo-5-fluorobenzyl)-N-but-3-en-1-yl-2,2-dimethyl-1,3-dioxolane-4-carboxamide]",chromatographic logP,[1]; [5],4.83
"C=CCCN(Cc1ccc(C)cc1Br)C(=O)[C@H]1OC(C)(C)O[C@@H]1CC=C [VI-1, (4S,5R)-5-Allyl-N-(2-bromo-4-methylbenzyl)-N-but-3-en-1-yl-2,2-dimethyl-1,3-dioxolane-4-carboxamide]",chromatographic logP,[1]; [5],5.27
O=C1C[C@@H](O)[C@H](O)C(=O)N2CCC1c1cc3c(cc1C2)OCO3 (some centres unmarked) [Example I-10],chromatographic logP,[1]; [3],0.89
"CC1(C)O[C@@H]2C(=O)N(Cc3cc(F)ccc3Br)CCC=CC[C@H]2O1 [VII-2, (3aS,10aR)-5-(2-bromo-5-fluorobenzyl)-2,2-dimethyl-3a,5,6,7,10,10a-hexahydro-4H-[1,3]dioxolo[4,5-c]azonin-4-one]",chromatographic logP,[1]; [4],3.09
"Cc1ccc(CN2CCC=CC[C@H]3OC(C)(C)O[C@@H]3C2=O)c(Br)c1 [VII-1, (3aS,10aR)-5-(2-Bromo-4-methylbenzyl)-2,2-dimethyl-3a,5,6,7,10,10a-hexahydro-4H-[1,3]dioxolo[4,5-c]azonin-4-one]",chromatographic logP,[1]; [4],3.41
"CC1(C)O[C@@H]2C(=O)N(Cc3ccncc3Br)CCC=CC[C@H]2O1 [VII-3, (3aS,10aR)-5-[(3-bromopyridin-4-yl)methyl]-2,2-dimethyl-3a,5,6,7,10,10a-hexahydro-4H-[1,3]dioxolo[4,5-c]azonin-4-one]",chromatographic logP,[1]; [4],1.96
"O=C1CCCC=C2CCN1Cc1cc3c(cc12)OCO3 [Example Ia-5, 5,8,9,10-Tetrahydro-7H-6,12-ethano[1,3]dioxolo[4,5-k][2]benzazecin-7-one]",chromatographic logP,[1]; [3],2.01
"O=C1CCCC(=O)N2CCC1c1cc3c(cc1C2)OCO3 (centres unmarked) [Example I-7, 9,10,12-Trihydro-5H-6,12-ethano[1,3]dioxolo[4,5-k][2]benzazecine-7,11(8H)-dione]",chromatographic logP,[1]; [3],1.3
